Key:
Format in all cases: biochemical
Trk A = Trk A (Homo sapiens, UniProt P04629); assay: HotSpot kinase assay against Trk A; conditions: HotSpot 33P assay, ATP 10 μM-30 μM
Description: (§1) Kinase assays were performed using test compounds against a panel of Trk kinases: Trk A; Trk B; and Trk C. Each compound was tested at a concentration of 0.1 μM in single duplicate mode against the three kinases. Compounds were prepared as 10 mM stock solutions in DMSO prior to use in the assay. The control compound, staurosporine, was tested at 10 concentrations with three-fold serial dilution starting at 20 μM. IC50 values and curve fits were obtained using Prism (GraphPad Software). IC50 values were determined for staurosporine for comparison.
(§2) The screening was performed using the “HotSpot” assay platform. The assay measures the conversion of a peptide substrate to ^33P-labelled phosphorylated product. Briefly, specific kinase/substrate pairs along with required cofactors were prepared in reaction buffer. Specifically, the substrate was prepared in reaction buffer (20 mM Hepes, pH 7.5; 10 mM MgCl2; 1 mM EGTA; 0.02% Brij35; 0.02 mg/mL BSA; 0.1 mM Na3VO4; 2 mM DTT; 1% DMSO), followed by delivery of any required cofactor to the resulting substrate solution. The corresponding kinase was delivered into the substrate solution and the reaction mixture was mixed gently. Compound was delivered into the reaction mixture, followed 15-20 min later by addition of a mixture of ATP (Sigma, St. Louis Mo.) and ^33P ATP (specific activity 0.01 μCi/μL final; Perkin Elmer, Waltham, Mass.) to a final concentration of 10 μM-30 μM to initiate the reaction. Reactions were carried out at RT for 120 min, followed by spotting of the reactions onto P81 ion exchange filter paper (Whatman #3698-915; Whatman Inc., Piscataway, N.J.). Unbound phosphate was removed by extensive washing of filters in 0.75% phosphoric acid. […] The percent of enzyme inhibition was calculated based on the percent of remaining kinase activity.

Trk C = Trk C (Homo sapiens, UniProt Q16288); assay: HotSpot kinase assay against Trk C; conditions: HotSpot 33P assay, ATP 10 μM-30 μM
Description: as §1, §2

activated IR = molecular target: T1, activated IR (Homo sapiens, UniProt P06213); assay: In vitro IR enzymatic assay (ADP-Glo); conditions: ATP 50 μM; for inhibition at 1 µM: compound 1 μM; for inhibition at 3 µM: compound 3 μM; for inhibition at 30 µM: compound 30 μM
T1 construct: purchased Millipore 14-803
Description: (§3) Inhibition of IGF-1R and IR kinases by compounds described herein were tested. The IC50 values were measured in vitro using an ADP-Glo kinase assay Kit (Promega). For the IGF-1R assay, active recombinant IGF-1R (Millipore #14-802) was used at 1 ng/reaction, the substrate IGF-1R tide (Millipore #12-527) was used at 125 μM and ATP was used at 100 μM. For the IR assay, active recombinant IR (Millipore #14-803) was used at 1 ng/reaction, the substrate Axl tide (Millipore #12-516) was used at 125 μM and ATP at 50 μM. Kinase reactions in both assays were conducted at 30° C. for 20 min with increasing concentrations of the test compounds.
(§4) The assay results as the percent inhibition of binding are presented in Tables B2 and B3 for IGF-1R and IR respectively.

Trk B = Trk B (Homo sapiens, UniProt Q16620); assay: HotSpot kinase assay against Trk B; conditions: HotSpot 33P assay, ATP 10 μM-30 μM
Description: as §1, §2

activated IGF-1R = molecular target: T2, activated IGF-1R (Homo sapiens, UniProt P08069); assay: In vitro IGF-1R enzymatic assay (ADP-Glo); conditions: ATP 100 μM; for inhibition at 1 µM: compound 1 μM; for inhibition at 3 µM: compound 3 μM; for inhibition at 10 µM: compound 10 μM; for inhibition at 30 µM: compound 30 μM
T2 construct: purchased Millipore 14-802
Description: as §3, §4

Chain of Trk A (P04629 33-796): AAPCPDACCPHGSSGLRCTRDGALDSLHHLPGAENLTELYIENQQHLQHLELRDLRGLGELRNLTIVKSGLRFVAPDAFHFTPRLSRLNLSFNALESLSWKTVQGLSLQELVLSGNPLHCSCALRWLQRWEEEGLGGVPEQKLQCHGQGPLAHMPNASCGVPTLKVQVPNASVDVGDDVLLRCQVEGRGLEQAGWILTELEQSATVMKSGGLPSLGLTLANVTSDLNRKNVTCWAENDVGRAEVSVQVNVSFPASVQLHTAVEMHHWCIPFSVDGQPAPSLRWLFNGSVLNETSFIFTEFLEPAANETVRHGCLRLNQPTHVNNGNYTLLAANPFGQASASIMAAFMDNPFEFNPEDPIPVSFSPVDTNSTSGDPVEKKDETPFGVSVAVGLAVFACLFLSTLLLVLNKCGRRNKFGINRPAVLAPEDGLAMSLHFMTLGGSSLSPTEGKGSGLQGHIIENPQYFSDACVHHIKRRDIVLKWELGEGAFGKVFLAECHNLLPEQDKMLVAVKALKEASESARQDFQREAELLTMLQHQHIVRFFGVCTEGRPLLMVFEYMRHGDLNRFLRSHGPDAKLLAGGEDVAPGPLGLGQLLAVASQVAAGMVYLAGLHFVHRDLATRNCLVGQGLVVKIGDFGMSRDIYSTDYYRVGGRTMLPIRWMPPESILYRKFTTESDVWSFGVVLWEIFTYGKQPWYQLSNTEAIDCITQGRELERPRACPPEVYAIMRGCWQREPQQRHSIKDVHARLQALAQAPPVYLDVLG
Chain of Trk C (Q16288 32-839): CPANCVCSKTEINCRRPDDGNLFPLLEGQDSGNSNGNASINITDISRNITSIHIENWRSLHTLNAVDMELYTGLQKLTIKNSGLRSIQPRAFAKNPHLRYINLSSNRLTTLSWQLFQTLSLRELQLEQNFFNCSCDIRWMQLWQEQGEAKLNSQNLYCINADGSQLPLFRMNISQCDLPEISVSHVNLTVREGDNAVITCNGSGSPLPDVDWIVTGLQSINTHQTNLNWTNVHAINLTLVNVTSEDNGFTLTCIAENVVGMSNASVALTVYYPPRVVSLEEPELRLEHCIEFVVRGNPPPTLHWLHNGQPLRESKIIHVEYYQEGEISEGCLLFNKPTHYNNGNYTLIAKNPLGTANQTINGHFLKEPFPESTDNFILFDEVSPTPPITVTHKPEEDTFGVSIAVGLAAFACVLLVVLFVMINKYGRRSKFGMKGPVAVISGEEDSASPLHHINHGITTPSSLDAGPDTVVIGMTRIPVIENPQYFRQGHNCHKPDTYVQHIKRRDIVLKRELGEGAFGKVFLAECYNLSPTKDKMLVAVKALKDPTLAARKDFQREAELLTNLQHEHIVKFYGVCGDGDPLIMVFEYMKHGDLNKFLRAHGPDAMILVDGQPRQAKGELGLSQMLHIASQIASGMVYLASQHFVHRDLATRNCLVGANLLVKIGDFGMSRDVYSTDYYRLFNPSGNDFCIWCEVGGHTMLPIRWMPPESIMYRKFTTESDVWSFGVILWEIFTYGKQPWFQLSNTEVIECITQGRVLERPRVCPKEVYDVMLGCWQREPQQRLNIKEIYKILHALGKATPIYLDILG
Chain of Trk B (Q16620 32-822): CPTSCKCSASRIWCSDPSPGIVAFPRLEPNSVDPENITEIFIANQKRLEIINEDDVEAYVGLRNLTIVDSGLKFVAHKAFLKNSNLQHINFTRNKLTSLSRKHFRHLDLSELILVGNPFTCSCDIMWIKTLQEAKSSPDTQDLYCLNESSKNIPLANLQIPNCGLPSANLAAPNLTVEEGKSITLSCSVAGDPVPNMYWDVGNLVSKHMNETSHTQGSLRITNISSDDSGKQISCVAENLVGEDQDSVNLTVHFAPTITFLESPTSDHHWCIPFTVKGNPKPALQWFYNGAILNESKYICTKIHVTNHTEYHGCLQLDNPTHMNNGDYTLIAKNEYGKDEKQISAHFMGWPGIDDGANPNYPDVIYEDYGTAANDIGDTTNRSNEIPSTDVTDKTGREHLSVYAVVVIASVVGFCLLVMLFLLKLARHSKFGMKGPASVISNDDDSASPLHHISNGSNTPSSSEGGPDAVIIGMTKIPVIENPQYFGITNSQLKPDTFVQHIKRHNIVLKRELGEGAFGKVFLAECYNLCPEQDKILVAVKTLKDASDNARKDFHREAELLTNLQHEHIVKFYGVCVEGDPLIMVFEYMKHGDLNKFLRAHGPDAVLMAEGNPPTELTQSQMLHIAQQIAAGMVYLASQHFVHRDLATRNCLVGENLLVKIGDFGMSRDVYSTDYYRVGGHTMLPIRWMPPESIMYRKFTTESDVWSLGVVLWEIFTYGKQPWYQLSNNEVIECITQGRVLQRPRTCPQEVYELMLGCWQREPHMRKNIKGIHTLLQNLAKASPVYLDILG
T1 sequence (P06213 28-1382): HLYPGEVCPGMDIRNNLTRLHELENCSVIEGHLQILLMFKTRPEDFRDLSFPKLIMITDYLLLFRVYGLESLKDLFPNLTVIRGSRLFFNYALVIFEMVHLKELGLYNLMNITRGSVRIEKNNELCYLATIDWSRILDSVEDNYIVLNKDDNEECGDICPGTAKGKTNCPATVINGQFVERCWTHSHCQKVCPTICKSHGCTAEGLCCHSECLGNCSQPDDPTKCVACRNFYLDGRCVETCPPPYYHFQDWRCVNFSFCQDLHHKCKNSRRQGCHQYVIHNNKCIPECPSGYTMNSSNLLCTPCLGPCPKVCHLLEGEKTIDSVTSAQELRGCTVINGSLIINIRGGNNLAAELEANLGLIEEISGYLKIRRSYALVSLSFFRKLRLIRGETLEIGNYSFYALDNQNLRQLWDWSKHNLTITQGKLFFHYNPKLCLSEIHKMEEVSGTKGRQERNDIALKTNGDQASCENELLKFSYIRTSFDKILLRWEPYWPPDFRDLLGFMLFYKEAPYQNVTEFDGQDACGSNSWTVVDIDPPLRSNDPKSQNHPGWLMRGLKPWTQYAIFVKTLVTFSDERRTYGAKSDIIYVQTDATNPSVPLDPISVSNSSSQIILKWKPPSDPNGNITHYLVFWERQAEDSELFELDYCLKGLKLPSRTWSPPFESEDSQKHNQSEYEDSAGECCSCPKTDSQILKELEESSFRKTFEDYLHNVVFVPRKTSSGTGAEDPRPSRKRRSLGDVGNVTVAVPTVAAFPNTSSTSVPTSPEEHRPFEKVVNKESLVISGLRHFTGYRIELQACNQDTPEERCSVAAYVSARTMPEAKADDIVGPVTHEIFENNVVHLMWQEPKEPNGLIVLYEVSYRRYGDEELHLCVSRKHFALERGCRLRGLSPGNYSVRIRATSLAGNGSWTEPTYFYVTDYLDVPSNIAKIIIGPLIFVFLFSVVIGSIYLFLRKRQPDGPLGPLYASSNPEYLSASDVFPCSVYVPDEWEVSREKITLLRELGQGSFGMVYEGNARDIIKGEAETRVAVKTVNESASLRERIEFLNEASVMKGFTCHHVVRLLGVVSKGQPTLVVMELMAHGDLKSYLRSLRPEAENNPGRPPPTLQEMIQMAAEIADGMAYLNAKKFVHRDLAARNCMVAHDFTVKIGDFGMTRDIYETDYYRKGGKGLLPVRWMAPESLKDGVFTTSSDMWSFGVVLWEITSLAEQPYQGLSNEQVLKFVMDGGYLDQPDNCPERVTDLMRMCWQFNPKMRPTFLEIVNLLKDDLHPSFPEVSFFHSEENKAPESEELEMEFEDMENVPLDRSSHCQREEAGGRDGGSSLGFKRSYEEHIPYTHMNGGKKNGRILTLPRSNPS
T2 sequence (P08069 31-1367): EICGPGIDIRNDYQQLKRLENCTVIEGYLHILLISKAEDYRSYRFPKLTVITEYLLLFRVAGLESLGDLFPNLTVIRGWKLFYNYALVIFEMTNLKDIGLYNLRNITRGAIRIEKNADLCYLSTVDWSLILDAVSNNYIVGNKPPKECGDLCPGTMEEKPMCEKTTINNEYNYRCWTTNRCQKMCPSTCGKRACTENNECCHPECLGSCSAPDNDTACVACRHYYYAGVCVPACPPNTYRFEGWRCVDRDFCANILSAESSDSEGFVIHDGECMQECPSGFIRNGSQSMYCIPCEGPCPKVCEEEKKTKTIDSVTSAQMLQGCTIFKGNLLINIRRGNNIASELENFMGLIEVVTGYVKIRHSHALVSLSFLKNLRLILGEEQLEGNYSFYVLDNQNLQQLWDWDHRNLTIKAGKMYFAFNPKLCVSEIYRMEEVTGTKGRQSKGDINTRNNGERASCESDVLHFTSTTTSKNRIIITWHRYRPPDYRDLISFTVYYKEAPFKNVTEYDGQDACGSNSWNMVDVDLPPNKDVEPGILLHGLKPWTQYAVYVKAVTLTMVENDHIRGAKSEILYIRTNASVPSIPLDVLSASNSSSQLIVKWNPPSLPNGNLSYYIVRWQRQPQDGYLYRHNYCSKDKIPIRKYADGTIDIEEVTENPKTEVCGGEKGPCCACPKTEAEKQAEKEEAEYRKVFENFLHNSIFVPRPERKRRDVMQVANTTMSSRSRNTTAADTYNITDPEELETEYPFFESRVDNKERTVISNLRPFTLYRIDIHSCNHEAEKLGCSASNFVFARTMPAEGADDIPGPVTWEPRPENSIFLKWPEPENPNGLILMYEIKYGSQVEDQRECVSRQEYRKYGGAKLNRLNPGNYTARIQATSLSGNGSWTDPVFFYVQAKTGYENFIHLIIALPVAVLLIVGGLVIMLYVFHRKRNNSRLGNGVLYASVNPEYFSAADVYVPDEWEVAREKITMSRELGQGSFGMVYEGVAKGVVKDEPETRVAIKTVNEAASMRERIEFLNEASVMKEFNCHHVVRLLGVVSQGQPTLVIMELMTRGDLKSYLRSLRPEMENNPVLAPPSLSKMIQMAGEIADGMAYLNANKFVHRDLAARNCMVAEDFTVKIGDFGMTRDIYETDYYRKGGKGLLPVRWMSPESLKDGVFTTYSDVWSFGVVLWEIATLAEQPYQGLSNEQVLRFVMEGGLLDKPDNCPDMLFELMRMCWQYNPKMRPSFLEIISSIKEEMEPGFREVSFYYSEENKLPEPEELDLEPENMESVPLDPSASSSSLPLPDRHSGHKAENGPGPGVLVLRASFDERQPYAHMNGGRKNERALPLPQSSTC

IC50 (Trk A) [nM]	IC50 (Trk C) [nM]	inhibition at 1 µM (activated IR) [%]	inhibition at 3 µM (activated IR) [%]	inhibition at 30 µM (activated IR) [%]	IC50 (Trk B) [nM]	inhibition at 1 µM (activated IGF-1R) [%]	inhibition at 3 µM (activated IGF-1R) [%]	inhibition at 10 µM (activated IGF-1R) [%]	inhibition at 30 µM (activated IGF-1R) [%]	SMILES
26	1.2	30	60	97	2	35	57	83	95	CN(C(=O)[C@@H]1CCCN1c1nc2c(c(Nc3cc(C4CCCC4)n[nH]3)n1)CCC2)c1nccs1 [70b, (2S)-1-[4-[(3-cyclopentyl-1H-pyrazol-5-yl)amino]-6,7-dihydro-5H-cyclopenta[d]pyrimidin-2-yl]-N-methyl-N-thiazol-2-yl-pyrrolidine-2-carboxamide]
1440	180	5	16	45	403	6	14	14	38	CN(C)C(=O)[C@H]1CCCN1c1nc2c(c(Nc3cc(C4CCOCC4)[nH]n3)n1)CCC2 [91a, (R)—N,N-dimethyl-1-(4-((5-(tetrahydro-2H-pyran-4-yl)-1H-pyrazol-3-yl)amino)-6,7-dihydro-5H-cyclopenta[d]pyrimidin-2-yl)pyrrolidine-2-carboxamide]
6310	362	1	-2	7	902	0	4	-2	21	CN(C)C(=O)[C@@H]1CCCN1c1nc2c(c(Nc3cc(C4CCOCC4)[nH]n3)n1)CCC2 [91b, (S)-N,N-dimethyl-1-(4-(5-(tetrahydro-2H-pyran-4-yl)-1H-pyrazol-3-ylamino)-6,7-dihydro-5H-cyclopenta[d]pyrimidin-2-yl)pyrrolidine-2-carboxamide]
11	0.3	12	39	86	1	12	33	61	84	O=C([C@@H]1CCCN1c1nc2c(c(Nc3cc(C4CCCC4)[nH]n3)n1)CCC2)N1CCC(F)(F)C1 [109b, (S)-(1-(4-((5-cyclopentyl-1H-pyrazol-3-yl)amino)-6,7-dihydro-5H-cyclopenta[d]pyrimidin-2-yl)pyrrolidin-2-yl)(3,3-difluoropyrrolidin-1-yl)methanone]
53	0.7	35			2					CC(C)c1cc(Nc2nc(N3CCC[C@H]3C(=O)N3CCC(F)(F)C3)nc3c2CCC3)n[nH]1 [111b, (S)-(3,3-difluoropyrrolidin-1-yl)(1-(4-((5-isopropyl-1H-pyrazol-3-yl)amino)-6,7-dihydro-5H-cyclopenta[d]pyrimidin-2-yl)pyrrolidin-2-yl)methanone]
670	279	35			628					CC(C)c1cc(Nc2nc(N3CCC[C@@H]3C(=O)N3CC(F)(F)C(F)(F)C3)nc3c2CCC3)n[nH]1 [112a, (R)-(1-(4-((5-isopropyl-1H-pyrazol-3-yl)amino)-6,7-dihydro-5H-cyclopenta[d]pyrimidin-2-yl)pyrrolidin-2-yl)(3,3,4,4-tetrafluoropyrrolidin-1-yl)methanone]
669	144	42			258					CC(C)c1cc(Nc2nc(N3CCC[C@@H]3C(=O)N3CCC(F)(F)C3)nc3c2CCC3)n[nH]1 [139a, (R)-(3,3-difluoropyrrolidin-1-yl)(1-(4-((5-isopropyl-1H-pyrazol-3-yl)amino)-6,7-dihydro-5H-cyclopenta[d]pyrimidin-2-yl)pyrrolidin-2-yl)methanone]

Reference: patent US20170137410A1, “FUSED CYCLOALKYL-PYRIMIDINE COMPOUNDS AND USES THEREOF” (Medivation Technologies, Inc., priority 2014, published 2017)
